Results from publication PMC5218480 (PLoS ONE, 2017).

Test system: MV-4-11 cells
Test: Gene expression microarray analysis (Affymetrix PrimeView) and GSEA
Type: cell-based, human
Parameters: RFU PODN (11730768_x_at) / Fold change /veh PODN (11730768_x_at) / RFU LINC00158 (11744669_a_at) / Fold change /veh LINC00158 (11744669_a_at) / RFU DUSP10 (11751237_a_at) / Fold change /veh DUSP10 (11751237_a_at) / RFU ID3 (11757404_x_at) / Fold change /veh ID3 (11757404_x_at) / RFU PLEKHG5 (11737974_s_at) / Fold change /veh PLEKHG5 (11737974_s_at) / RFU LRRC4B (11730491_at) / Fold change /veh LRRC4B (11730491_at) / RFU GIMAP4 (11747438_a_at) / Fold change /veh GIMAP4 (11747438_a_at) / RFU KRT8 (11758183_x_at) / Fold change /veh KRT8 (11758183_x_at) / RFU CNN1 (11734310_a_at) / Fold change /veh CNN1 (11734310_a_at) / RFU VPS37D (11726825_at) / Fold change /veh VPS37D (11726825_at) / RFU C10orf10 (11716522_x_at) / Fold change /veh C10orf10 (11716522_x_at) / RFU KIR2DL2 /// KIR2DL4 /// KIR2DL5A /// KIR2DL5B /// KIR2DS1 /// KIR2DS2 /// KIR2DS3 /// KIR2DS4 /// KIR3DL3 /// KIR3DL3 /// KIR3DS1 (11738374_at) / Fold change /veh KIR2DL2 /// KIR2DL4 /// KIR2DL5A /// KIR2DL5B /// KIR2DS1 /// KIR2DS2 /// KIR2DS3 /// KIR2DS4 /// KIR3DL3 /// KIR3DL3 /// KIR3DS1 (11738374_at) / RFU C1QL1 (11718748_at) / Fold change /veh C1QL1 (11718748_at) / RFU TMPRSS4 (11747572_a_at) / Fold change /veh TMPRSS4 (11747572_a_at) / RFU HAMP (11756126_x_at) / Fold change /veh HAMP (11756126_x_at) / RFU RNFT2 (11725882_a_at) / Fold change /veh RNFT2 (11725882_a_at) / RFU NR4A2 (11747474_a_at) / Fold change /veh NR4A2 (11747474_a_at) / RFU ABCC12 (11746883_a_at) / Fold change /veh ABCC12 (11746883_a_at) / RFU TMEM136 (11760407_x_at) / Fold change /veh TMEM136 (11760407_x_at) / RFU CLDN22 /// WWC2 (11732394_at) / Fold change /veh CLDN22 /// WWC2 (11732394_at) / RFU HLA-DPB1 (11760878_x_at) / Fold change /veh HLA-DPB1 (11760878_x_at) / RFU SPINT1 (11716480_a_at) / Fold change /veh SPINT1 (11716480_a_at) / RFU GAP43 (11754022_s_at) / Fold change /veh GAP43 (11754022_s_at) / RFU A4GNT (11735810_at) / Fold change /veh A4GNT (11735810_at) / RFU PRB3 (11715151_x_at) / Fold change /veh PRB3 (11715151_x_at) / RFU TUBB4B (11761932_at) / Fold change /veh TUBB4B (11761932_at) / RFU CAPN14 (11732068_a_at) / Fold change /veh CAPN14 (11732068_a_at) / RFU TMCC2 (11721928_a_at) / Fold change /veh TMCC2 (11721928_a_at) / RFU IRGQ (11745062_a_at) / Fold change /veh IRGQ (11745062_a_at) / RFU FAM174B (11720279_a_at) / Fold change /veh FAM174B (11720279_a_at) / RFU TMPRSS4 (11748680_a_at) / Fold change /veh TMPRSS4 (11748680_a_at) / RFU FAM212B (11763350_a_at) / Fold change /veh FAM212B (11763350_a_at) / RFU PLEKHG5 (11743358_a_at) / Fold change /veh PLEKHG5 (11743358_a_at) / RFU ZSCAN30 (11745921_a_at) / Fold change /veh ZSCAN30 (11745921_a_at) / RFU CMKLR1 (11741424_a_at) / Fold change /veh CMKLR1 (11741424_a_at) / RFU LOC101060620 /// MAPK8IP1 (11723275_at) / Fold change /veh LOC101060620 /// MAPK8IP1 (11723275_at) / RFU SPTSSB (11747773_x_at) / Fold change /veh SPTSSB (11747773_x_at) / RFU PRSS12 (11739890_at) / Fold change /veh PRSS12 (11739890_at) / RFU BIN1 (11741810_x_at) / Fold change /veh BIN1 (11741810_x_at) / RFU WNT11 (11732464_a_at) / Fold change /veh WNT11 (11732464_a_at) / RFU C10orf10 (11716521_a_at) / Fold change /veh C10orf10 (11716521_a_at) / RFU C5orf56 (11738089_at) / Fold change /veh C5orf56 (11738089_at) / RFU CYB561 (11721691_x_at) / Fold change /veh CYB561 (11721691_x_at) / RFU ANKRD19P (11752326_a_at) / Fold change /veh ANKRD19P (11752326_a_at) / RFU OR2T12 /// OR2T33 /// OR2T8 (11738714_s_at) / Fold change /veh OR2T12 /// OR2T33 /// OR2T8 (11738714_s_at) / RFU VCAN (11748164_a_at) / Fold change /veh VCAN (11748164_a_at) / RFU JSRP1 (11732532_at) / Fold change /veh JSRP1 (11732532_at) / RFU KRTAP10-11 (11738290_x_at) / Fold change /veh KRTAP10-11 (11738290_x_at) / RFU MYO3A (11730013_a_at) / Fold change /veh MYO3A (11730013_a_at) / RFU EBF3 (11725865_a_at) / Fold change /veh EBF3 (11725865_a_at) / RFU CAMK2N1 (11719241_x_at) / Fold change /veh CAMK2N1 (11719241_x_at) / RFU C5orf56 (11738088_a_at) / Fold change /veh C5orf56 (11738088_a_at) / RFU OLFML3 (11715873_a_at) / Fold change /veh OLFML3 (11715873_a_at) / RFU LOC100653217 /// NTM (11731650_a_at) / Fold change /veh LOC100653217 /// NTM (11731650_a_at) / RFU MAPK11 (11762145_a_at) / Fold change /veh MAPK11 (11762145_a_at) / RFU FIZ1 (11724087_x_at) / Fold change /veh FIZ1 (11724087_x_at) / RFU OASL (11726364_x_at) / Fold change /veh OASL (11726364_x_at) / RFU SOX15 (11748057_x_at) / Fold change /veh SOX15 (11748057_x_at) / RFU CD79A (11719716_a_at) / Fold change /veh CD79A (11719716_a_at) / RFU HIST1H1D (11736915_at) / Fold change /veh HIST1H1D (11736915_at) / RFU CASKIN2 (11723855_a_at) / Fold change /veh CASKIN2 (11723855_a_at) / RFU LOC730098 (11760151_x_at) / Fold change /veh LOC730098 (11760151_x_at) / RFU OR4N2 (11742367_at) / Fold change /veh OR4N2 (11742367_at) / RFU PRRT2 (11749266_a_at) / Fold change /veh PRRT2 (11749266_a_at) / RFU SNX32 (11753110_a_at) / Fold change /veh SNX32 (11753110_a_at) / RFU CDHR5 (11726645_a_at) / Fold change /veh CDHR5 (11726645_a_at) / RFU RCAN1 (11760418_a_at) / Fold change /veh RCAN1 (11760418_a_at) / RFU FAM167A (11723789_a_at) / Fold change /veh FAM167A (11723789_a_at) / RFU FAM26E (11764081_at) / Fold change /veh FAM26E (11764081_at) / RFU ISYNA1 (11749810_s_at) / Fold change /veh ISYNA1 (11749810_s_at) / RFU ACY1 (11761880_at) / Fold change /veh ACY1 (11761880_at) / RFU 11764098_at / Fold change /veh 11764098_at / RFU SAMD14 (11745864_x_at) / Fold change /veh SAMD14 (11745864_x_at) / RFU NPB (11741838_a_at) / Fold change /veh NPB (11741838_a_at) / RFU TMPRSS6 (11731388_a_at) / Fold change /veh TMPRSS6 (11731388_a_at) / RFU KRTAP10-2 (11738614_at) / Fold change /veh KRTAP10-2 (11738614_at) / RFU ARHGAP8 /// PRR5-ARHGAP8 (11727945_x_at) / Fold change /veh ARHGAP8 /// PRR5-ARHGAP8 (11727945_x_at) / RFU KRTAP5-7 /// NADSYN1 (11734609_at) / Fold change /veh KRTAP5-7 /// NADSYN1 (11734609_at) / RFU RASL12 (11751679_a_at) / Fold change /veh RASL12 (11751679_a_at) / RFU CDKN2B (11736163_a_at) / Fold change /veh CDKN2B (11736163_a_at) / RFU PRF1 (11729649_at) / Fold change /veh PRF1 (11729649_at) / RFU, ZNF638 /// ZNF638-IT1 / Fold change vs veh, ZNF638 /// ZNF638-IT1 / RFU, PANK3 / Fold change vs veh, PANK3 / RFU, SH3YL1 / Fold change vs veh, SH3YL1 / RFU, ZEB2 / Fold change vs veh, ZEB2 / RFU, NRIP1 / Fold change vs veh, NRIP1 / RFU, PTTG1IP / Fold change vs veh, PTTG1IP / RFU, CAPN2 / Fold change vs veh, CAPN2 / RFU, MED14 / Fold change vs veh, MED14 / RFU, SNORA58 / Fold change vs veh, SNORA58 / RFU, C1orf63 / Fold change vs veh, C1orf63 / RFU, LRRFIP1 / Fold change vs veh, LRRFIP1 / RFU, NDUFAF7 / Fold change vs veh, NDUFAF7 / RFU, SLC12A2 / Fold change vs veh, SLC12A2 / RFU, IBTK / Fold change vs veh, IBTK / RFU, ESF1 / Fold change vs veh, ESF1 / Fold change vs veh, TMEM50B / RFU, TAOK1 / Fold change vs veh, TAOK1 / RFU, ACBD3 / Fold change vs veh, ACBD3 / RFU, TMA16 / Fold change vs veh, TMA16 / RFU, RWDD3 / Fold change vs veh, RWDD3 / RFU, BCAT1 / Fold change vs veh, BCAT1 / RFU, EDEM3 / Fold change vs veh, EDEM3 / RFU, TMEM33 / Fold change vs veh, TMEM33 / RFU, WDR75 / Fold change vs veh, WDR75 / RFU, AHCTF1 / Fold change vs veh, AHCTF1 / RFU, TFRC / Fold change vs veh, TFRC / RFU, ZDHHC17 / Fold change vs veh, ZDHHC17 / RFU, NOM1 / Fold change vs veh, NOM1 / RFU, ARL8B / Fold change vs veh, ARL8B / RFU, ZBTB11 / Fold change vs veh, ZBTB11 / RFU, TAMM41 / Fold change vs veh, TAMM41 / RFU, KIAA1704 /// LOC100996395 / Fold change vs veh, KIAA1704 /// LOC100996395 / RFU, ING1 / Fold change vs veh, ING1 / RFU, TRMT61B / Fold change vs veh, TRMT61B / RFU, FUBP3 / Fold change vs veh, FUBP3 / RFU, TP53 / Fold change vs veh, TP53 / RFU, TNKS2 / Fold change vs veh, TNKS2 / RFU, ZFP14 / Fold change vs veh, ZFP14 / RFU, ACTR2 / Fold change vs veh, ACTR2 / RFU, PPP3R1 / Fold change vs veh, PPP3R1 / RFU, PIK3R1 / Fold change vs veh, PIK3R1 / RFU, HNRNPA1 / Fold change vs veh, HNRNPA1 / RFU, RNF170 / Fold change vs veh, RNF170 / RFU, ZNF28 / Fold change vs veh, ZNF28 / RFU, RNGTT / Fold change vs veh, RNGTT / RFU, OGT / Fold change vs veh, OGT / RFU, BRD1 / Fold change vs veh, BRD1 / RFU, MARS / Fold change vs veh, MARS / RFU, ZNF655 / Fold change vs veh, ZNF655 / RFU, FAHD1 / Fold change vs veh, FAHD1 / RFU, BDP1 / Fold change vs veh, BDP1 / RFU, LRRCC1 / Fold change vs veh, LRRCC1 / RFU, ARID1A / Fold change vs veh, ARID1A / RFU, ZNF146 / Fold change vs veh, ZNF146 / RFU, ZNF330 / Fold change vs veh, ZNF330 / RFU, GPN3 / Fold change vs veh, GPN3 / RFU, C9orf123 / Fold change vs veh, C9orf123 / RFU, N4BP2L2 / Fold change vs veh, N4BP2L2 / RFU, ARFIP1 / Fold change vs veh, ARFIP1 / RFU, FAM179B / Fold change vs veh, FAM179B / RFU, BCL10 / Fold change vs veh, BCL10 / RFU, UHRF1BP1L / Fold change vs veh, UHRF1BP1L / RFU, BET1 / Fold change vs veh, BET1 / RFU, CNOT2 / Fold change vs veh, CNOT2 / RFU, ZNF268 / Fold change vs veh, ZNF268 / Fold change vs veh, ZNF507 / RFU, DGCR2 / Fold change vs veh, DGCR2 / RFU, WDSUB1 / Fold change vs veh, WDSUB1 / Fold change vs veh, HSP90B1 /// MIR3652 / RFU, ADSS / Fold change vs veh, ADSS / RFU, GK / Fold change vs veh, GK / RFU, ZNF148 / Fold change vs veh, ZNF148 / RFU, TAF9 / Fold change vs veh, TAF9 / RFU, SLC1A5 / Fold change vs veh, SLC1A5 / RFU, SLMO2 / Fold change vs veh, SLMO2 / RFU, ABCC4 / Fold change vs veh, ABCC4 / RFU, LOC101060439 /// RAP1B / Fold change vs veh, LOC101060439 /// RAP1B / RFU, RFX7 / Fold change vs veh, RFX7 / RFU, GTPBP10 / Fold change vs veh, GTPBP10 / RFU, CNEP1R1 / Fold change vs veh, CNEP1R1 / RFU, BIVM-ERCC5 /// ERCC5 / Fold change vs veh, BIVM-ERCC5 /// ERCC5 / RFU, ILF3 / Fold change vs veh, ILF3 / RFU 11762660_at / Fold change /veh 11762660_at / RFU VCAN (11757783_s_at) / Fold change /veh VCAN (11757783_s_at) / RFU DDX43 (11728927_at) / Fold change /veh DDX43 (11728927_at) / RFU KRT8 (11758188_x_at) / Fold change /veh KRT8 (11758188_x_at) / RFU NKD1 (11759106_at) / Fold change /veh NKD1 (11759106_at) / RFU SRD5A1 (11742802_a_at) / Fold change /veh SRD5A1 (11742802_a_at) / RFU TPSAB1 /// TPSB2 (11721975_s_at) / Fold change /veh TPSAB1 /// TPSB2 (11721975_s_at) / RFU GSTM3 (11746129_a_at) / Fold change /veh GSTM3 (11746129_a_at) / RFU IL23R (11737362_x_at) / Fold change /veh IL23R (11737362_x_at) / RFU TMEM51 (11727254_a_at) / Fold change /veh TMEM51 (11727254_a_at) / RFU PIWIL2 (11732686_x_at) / Fold change /veh PIWIL2 (11732686_x_at) / RFU ORM1 (11744905_x_at) / Fold change /veh ORM1 (11744905_x_at) / RFU CCDC152 (11743942_at) / Fold change /veh CCDC152 (11743942_at) / RFU ECM1 (11717891_a_at) / Fold change /veh ECM1 (11717891_a_at) / RFU IL23R (11748794_a_at) / Fold change /veh IL23R (11748794_a_at) / RFU TNFAIP8L3 (11732012_x_at) / Fold change /veh TNFAIP8L3 (11732012_x_at) / RFU MBOAT4 (11741988_at) / Fold change /veh MBOAT4 (11741988_at) / RFU 11764193_at / Fold change /veh 11764193_at / RFU TMEM53 (11763286_at) / Fold change /veh TMEM53 (11763286_at) / RFU MAGEB2 (11727129_at) / Fold change /veh MAGEB2 (11727129_at) / RFU TMEM200A (11744735_a_at) / Fold change /veh TMEM200A (11744735_a_at) / RFU CCDC152 (11751479_a_at) / Fold change /veh CCDC152 (11751479_a_at) / RFU FAM211A (11726209_a_at) / Fold change /veh FAM211A (11726209_a_at) / RFU RGS16 (11746705_a_at) / Fold change /veh RGS16 (11746705_a_at) / RFU VCAN (11755009_s_at) / Fold change /veh VCAN (11755009_s_at) / RFU RHOB (11743442_s_at) / Fold change /veh RHOB (11743442_s_at) / RFU RGS16 (11720943_a_at) / Fold change /veh RGS16 (11720943_a_at) / RFU RGS16 (11720944_at) / Fold change /veh RGS16 (11720944_at) / RFU, VPS4B / Fold change vs veh, VPS4B / RFU, CREB1 / Fold change vs veh, CREB1 / RFU, DNAJC13 / Fold change vs veh, DNAJC13 / RFU, GNAQ / Fold change vs veh, GNAQ / RFU, CDK5R1 / Fold change vs veh, CDK5R1 / RFU, ZRANB3 / Fold change vs veh, ZRANB3 / RFU, CUL4A / Fold change vs veh, CUL4A / RFU, CCNY / Fold change vs veh, CCNY / RFU, UFL1 / Fold change vs veh, UFL1 / RFU, COG3 / Fold change vs veh, COG3 / RFU, DIAPH2 / Fold change vs veh, DIAPH2 / RFU, SKA2 / Fold change vs veh, SKA2 / RFU, AFF3 / Fold change vs veh, AFF3 / RFU, LMF1 / Fold change vs veh, LMF1 / RFU, IPO11 / Fold change vs veh, IPO11 / RFU, DFFB / Fold change vs veh, DFFB / RFU, FOXP1 / Fold change vs veh, FOXP1 / RFU, CARD8 / Fold change vs veh, CARD8 / RFU, STRN3 / Fold change vs veh, STRN3 / RFU, ADK / Fold change vs veh, ADK / RFU, RASSF2 / Fold change vs veh, RASSF2 / RFU, WIPF1 / Fold change vs veh, WIPF1 / RFU, LARP1B / Fold change vs veh, LARP1B / RFU, RASA1 / Fold change vs veh, RASA1 / RFU, RB1 / Fold change vs veh, RB1 / RFU, PPFIA1 / Fold change vs veh, PPFIA1 / RFU, MAT2A / Fold change vs veh, MAT2A / RFU, CCT5 / Fold change vs veh, CCT5 / RFU, WDR92 / Fold change vs veh, WDR92 / RFU, CUX1 / Fold change vs veh, CUX1 / RFU, TTC7A / Fold change vs veh, TTC7A / RFU, TMEM135 / Fold change vs veh, TMEM135 / RFU, DEPTOR / Fold change vs veh, DEPTOR / RFU, CPM / Fold change vs veh, CPM / RFU, DNAJB6 / Fold change vs veh, DNAJB6 / RFU, CACNA2D3 / Fold change vs veh, CACNA2D3 / RFU, DTX4 / Fold change vs veh, DTX4 / RFU, TFCP2 / Fold change vs veh, TFCP2 / RFU, GMCL1 /// GMCL1P1 / Fold change vs veh, GMCL1 /// GMCL1P1 / RFU, AEBP2 / Fold change vs veh, AEBP2 / RFU, SNHG1 /// SNORD22 /// SNORD25 /// SNORD26 /// SNORD27 /// SNORD28 /// SNORD29 /// SNORD31 / Fold change vs veh, SNHG1 /// SNORD22 /// SNORD25 /// SNORD26 /// SNORD27 /// SNORD28 /// SNORD29 /// SNORD31 / Fold change (Aza/veh), C12orf56 (ProbeSet 11735607_a_at) / Fold change (ACY-1035/veh), C12orf56 (ProbeSet 11735607_a_at) / Fold change (Aza/veh), FGFR1OP (ProbeSet 11751329_s_at) / Fold change (ACY-1035/veh), FGFR1OP (ProbeSet 11751329_s_at) / Fold change (Aza/veh), VPS36 (ProbeSet 11739960_a_at) / Fold change (ACY-1035/veh), VPS36 (ProbeSet 11739960_a_at) / RFU SYPL1 (11715823_x_at) / Fold change /veh SYPL1 (11715823_x_at) / RFU IGFBP7 (11715501_s_at) / Fold change /veh IGFBP7 (11715501_s_at) / RFU REEP3 (11722064_at) / Fold change /veh REEP3 (11722064_at) / RFU IGLL1 (11728026_x_at) / Fold change /veh IGLL1 (11728026_x_at): dose or concentration left out as unconfirmed
Details: ProbeSet 11727545_at; LIST B

Nc1ncn([C@@H]2O[C@H](CO)[C@@H](O)[C@H]2O)c(=O)n1 [azacitidine]
Fold change vs veh, PANK3: 0.85
